Assay results reported in patent publication US9617266B2, “Imidazopyrimidine derivatives” (Merck Patent GmbH, priority 2013, dated 2017).
Counter-ions that a name gives are not always drawn.

Molecular target: GCN2 (Homo sapiens, UniProt Q9P2K8)
Assay: GCN2 enzyme assay (TR-FRET Lanthascreen, GFP-eIF2alpha phosphorylation)
Type: biochemical
Settings: 10 μM ATP, 80 nM GFP-eIF2a substrate, 30 nM GCN2, room temperature
Description: GCN2: Assay Principle & Conditions
This assay can quantificate the activity of the serin kinase GCN2 (general control non-derepressible-2).
This kinase is involved in the stress metabolism of cells. It is activated upon starvation (amino acid depletion). Its natural substrate is eIF2a (eukaryotic initiation factor 2 alpha subunit), a translation factor, which gets activated (phosphorylated) by GCN2 in case of an amino acid bottleneck in the cells. This in turn leads to a halt of the protein synthesis. Inhibition of GCN2 results in stopping this mechanism: The cell can not stop protein production upon “starvation” stress.
The assay is run in two steps: the enzymatic reaction and the detection step. In the first step GCN2 is incubated with 10 μM ATP and 80 nM of the GFP-labelled substrate elF2alpha at room temperature.
The enzymatic reaction is stopped by addition of EDTA. The amount of phosphorylated elF2alpha is determined by TR-FRET (Lanthascreen): A complex is formed consisting of antibody and GFP labelled phospho-eIF2a, which allows a FRET upon exitation at 340 nm.
Final Concentrations in the Enzymatic Reaction

GCN2, sequence (Q9P2K8 whole entry, species assumed): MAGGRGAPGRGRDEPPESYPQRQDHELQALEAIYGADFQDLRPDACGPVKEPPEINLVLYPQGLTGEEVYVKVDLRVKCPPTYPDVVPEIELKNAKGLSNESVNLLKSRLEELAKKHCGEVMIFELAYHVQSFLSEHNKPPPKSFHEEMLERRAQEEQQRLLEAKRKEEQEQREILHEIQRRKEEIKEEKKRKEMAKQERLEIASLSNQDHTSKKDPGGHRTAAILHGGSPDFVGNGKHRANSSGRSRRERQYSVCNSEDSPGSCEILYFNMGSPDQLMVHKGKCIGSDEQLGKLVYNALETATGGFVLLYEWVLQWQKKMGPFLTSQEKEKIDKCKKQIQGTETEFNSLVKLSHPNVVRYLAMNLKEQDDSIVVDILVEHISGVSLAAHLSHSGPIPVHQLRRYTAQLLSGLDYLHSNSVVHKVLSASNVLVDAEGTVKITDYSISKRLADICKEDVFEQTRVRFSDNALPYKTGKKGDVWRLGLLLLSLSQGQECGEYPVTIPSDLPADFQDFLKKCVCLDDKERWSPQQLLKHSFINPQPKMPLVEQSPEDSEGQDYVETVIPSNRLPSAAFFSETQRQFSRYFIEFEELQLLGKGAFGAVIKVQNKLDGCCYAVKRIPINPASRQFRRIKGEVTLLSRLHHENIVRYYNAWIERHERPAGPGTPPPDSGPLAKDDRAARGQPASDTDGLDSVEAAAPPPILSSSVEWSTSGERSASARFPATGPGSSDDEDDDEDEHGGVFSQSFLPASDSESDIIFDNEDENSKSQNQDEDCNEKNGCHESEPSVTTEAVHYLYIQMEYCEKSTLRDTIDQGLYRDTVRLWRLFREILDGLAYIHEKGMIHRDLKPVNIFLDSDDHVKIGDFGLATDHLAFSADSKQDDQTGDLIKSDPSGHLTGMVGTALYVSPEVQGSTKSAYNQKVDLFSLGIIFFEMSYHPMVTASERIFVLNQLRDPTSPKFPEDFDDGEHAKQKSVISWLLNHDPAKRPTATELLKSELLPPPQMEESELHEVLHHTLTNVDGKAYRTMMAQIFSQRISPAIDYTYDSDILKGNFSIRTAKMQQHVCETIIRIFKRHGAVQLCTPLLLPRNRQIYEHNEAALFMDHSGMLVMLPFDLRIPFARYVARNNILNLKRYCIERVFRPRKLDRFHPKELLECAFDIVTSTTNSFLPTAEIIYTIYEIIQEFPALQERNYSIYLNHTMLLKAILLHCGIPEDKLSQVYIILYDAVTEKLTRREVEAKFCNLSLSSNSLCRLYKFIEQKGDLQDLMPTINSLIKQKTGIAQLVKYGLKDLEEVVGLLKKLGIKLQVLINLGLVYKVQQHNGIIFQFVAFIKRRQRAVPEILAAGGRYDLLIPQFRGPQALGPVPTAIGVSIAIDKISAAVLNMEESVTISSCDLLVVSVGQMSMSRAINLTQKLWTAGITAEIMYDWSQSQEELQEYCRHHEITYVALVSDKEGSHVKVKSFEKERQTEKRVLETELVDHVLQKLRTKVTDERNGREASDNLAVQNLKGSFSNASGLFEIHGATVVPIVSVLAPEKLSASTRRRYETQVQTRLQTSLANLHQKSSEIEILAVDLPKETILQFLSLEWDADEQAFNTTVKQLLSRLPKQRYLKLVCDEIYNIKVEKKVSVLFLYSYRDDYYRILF

Row | Structure (SMILES) | IC50 [nM]
1 | O[C@H]1CC[C@H](Nc2ncc3ncn(-c4ccc(I)c(F)c4)c3n2)C1 (relative stereo) [Compound A27, (trans)-3-[9-(3-fluoro-4-iodo-phenyl)-9H-purin-2-ylamino]-cyclopentanol] | 5000 to 10000
2 | COCCn1cc(-c2ccc(-n3cnc4cnc(N[C@H]5CC[C@H](O)C5)nc43)cc2F)cn1 (relative stereo) [Compound A29, (trans)-3-(9-{3-fluoro-4-[1-(2-methoxy-ethyl)-1H-pyrazol-4-yl]-phenyl}-9H-purin-2-ylamino)-cyclopentanol] | 1000 to 5000
3 | CCn1cc(Nc2ncc3ncn(-c4cnn(CC)c4)c3n2)cn1 [Compound A4, N,9-bis-(1-ethyl-1H-pyrazol-4-yl)-9H-purin-2-amine] | < 1000
4 | CCn1cc(Nc2ncc3ncn(-c4ccc5c(c4)NC(=O)C5(C)C)c3n2)cn1 [Compound A9, 6-(2-((1-ethyl-1H-pyrazol-4-yl)amino)-9H-purin-9-yl)-3,3-dimethylindolin-2-one] | < 1000
5 | COc1ccc(-n2cnc3cnc(Nc4cn[nH]c4)nc32)cc1 [Compound A18, [9-(4-methoxy-phenyl)-9H-purin-2-yl]-(1H-pyrazol-4-yl)-amine] | < 1000
6 | COc1ccc(-n2cnc3cnc(Nc4ccn(C)n4)nc32)cc1 [Compound A19, [9-(4-methoxy-phenyl)-9H-purin-2-yl]-(1-methyl-1H-pyrazol-3-yl)-amine] | 1000 to 5000
7 | CCn1cc(Nc2ncc3ncn(-c4ccc(C(=O)NCC(O)CO)cc4)c3n2)cn1 (stereo not shown) [Compound A22, N-(2,3-dihydroxy-propyl)-4-[2-(1-ethyl-1H-pyrazol-4-ylamino)-purin-9-yl]-benzamide] | 1000 to 5000
8 | CCn1cc(Nc2ncc3nc(N)n(-c4ccc(C(=O)NCCO)cc4)c3n2)cn1 [Compound A25, 4-[8-amino-2-(1-ethyl-1H-pyrazol-4-ylamino)-purin-9-yl]-N-(2-hydroxy-ethyl)-benzamide] | 5000 to 10000
9 | NC(=O)[C@@H]1CC[C@@H](Nc2ncc3ncn(-c4ccc(I)c(F)c4)c3n2)C1 [Compound A31, (1R,3R)-3-[9-(3-fluoro-4-iodo-phenyl)-9H-purin-2-ylamino]-cyclopentanecarboxylic acid amide] | 1000 to 5000
10 | CCOc1ccc(-n2cnc3cnc(N[C@@H]4CC[C@@H](C(N)=O)C4)nc32)cc1 [Compound A32, (1R,3R)-3-[9-(4-ethoxy-phenyl)-9H-purin-2-ylamino]-cyclopentanecarboxylic acid amide] | 1000 to 5000
11 | NC(=O)[C@@H]1CC[C@@H](Nc2ncc3ncn(-c4ccc(I)cc4)c3n2)C1 [Compound A33, (1R,3R)-3-[9-(4-iodo-phenyl)-9H-purin-2-ylamino]-cyclopentanecarboxylic acid amide] | 1000 to 5000
12 | COCCOc1ccc(-n2cnc3cnc(N[C@@H]4CC[C@@H](C(N)=O)C4)nc32)cc1 [Compound A34, (1R,3R)-3-{9-[4-(2-methoxy-ethoxy)-phenyl]-9H-purin-2-ylamino}-cyclopentanecarboxylic acid amide] | 1000 to 5000
13 | COCCn1cc(-c2ccc(-n3cnc4cnc(N[C@@H]5CC[C@@H](C(N)=O)C5)nc43)cc2F)cn1 [Compound A35, (1R,3R)-3-(9-{3-fluoro-4-[1-(2-methoxy-ethyl)-1H-pyrazol-4-yl]-phenyl}-9H-purin-2-ylamino)-cyclopentanecarboxylic acid amide] | < 1000
14 | Cc1ccc2cc(-n3cnc4cnc(N[C@@H]5CC[C@@H](C(N)=O)C5)nc43)ccc2n1 [Compound A37, (1R,3R)-3-[9-(2-methyl-quinolin-6-yl)-9H-purin-2-ylamino]-cyclopentanecarboxylic acid amide] | < 1000
15 | COCCn1cc(-c2ccc(-n3cnc4cnc(N[C@@H]5CCN(C(=O)CCN6CCN(C)CC6)C5)nc43)cc2)cn1 [Compound A39, 1-[(R)-3-(9-{4-[1-(2-methoxy-ethyl)-1H-pyrazol-4-yl]-phenyl}-9H-purin-2-ylamino)-pyrrolidin-1-yl]-3-(4-methyl-piperazin-1-yl)-propan-1-one] | 1000 to 5000

More lines, now with the values ahead:

Row | IC50 [nM] | Structure (SMILES)
16 | 1000 to 5000 | Cn1cc(-c2ccc(-n3cnc4cnc(N[C@@H]5CC[C@@H](O)C5)nc43)cc2)cn1 (relative stereo) [Compound A30, (trans)-3-{9-[4-(1-Methyl-1H-pyrazol-4-yl)-phenyl]-9H-purin-2-ylamino}-cyclopentanol]
17 | < 1000 | CCOc1ccc(-n2cnc3cnc(Nc4cnn(C5CCN(C)CC5)c4)nc32)cc1 [Compound A1, 9-(4-ethoxyphenyl)-N-(1-(1-methylpiperidin-4-yl)-1H-pyrazol-4-yl)-9H-purin-2-amine]
18 | < 1000 | COCCOc1ccc(-n2cnc3cnc(Nc4cnn(C5CCN(C)CC5)c4)nc32)cc1 [Compound A2, 9-(4-(2-methoxyethoxy)phenyl)-N-(1-(1-methylpiperidin-4-yl)-1H-pyrazol-4-yl)-9H-purin-2-amine]
19 | < 1000 | NC(=O)c1ccc(-n2cnc3cnc(Nc4cnn(C5CCOCC5)c4)nc32)cc1 [Compound A3, 4-(2-((1-(tetrahydro-2H-pyran-4-yl)-1H-pyrazol-4-yl)amino)-9H-purin-9-yl)benzamide]
20 | < 1000 | CCn1cc(-n2cnc3cnc(Nc4cnn(C5CCOCC5)c4)nc32)cn1 [Compound A5, 9-(1-ethyl-1H-pyrazol-4-yl)-N-(1-(tetrahydro-2H-pyran-4-yl)-1H-pyrazol-4-yl)-9H-purin-2-amine]
21 | 1000 to 5000 | CCOc1ccc(-n2c(C)nc3cnc(Nc4cnn(C5CCN(C)CC5)c4)nc32)cc1 [Compound A6, 9-(4-ethoxyphenyl)-8-methyl-N-(1-(1-methylpiperidin-4-yl)-1H-pyrazol-4-yl)-9H-purin-2-amine]
22 | < 1000 | CCOc1ccc(-n2cnc3cnc(Nc4cnn(CCn5cccn5)c4)nc32)cc1 [Compound A10, N-(1-(2-(1H-pyrazol-1-yl)ethyl)-1H-pyrazol-4-yl)-9-(4-ethoxyphenyl)-9H-purin-2-amine]
23 | < 1000 | CCOc1ccc(-n2cnc3cnc(Nc4cnn(CCCC5CCNCC5)c4)nc32)cc1 [Compound A11, 9-(4-ethoxyphenyl)-N-(1-(3-(piperidin-4-yl)propyl)-1H-pyrazol-4-yl)-9H-purin-2-amine hydrochloride]
24 | < 1000 | Fc1cc(-n2cnc3cnc(Nc4cnn(C5CCOCC5)c4)nc32)ccc1Cl [Compound A12, 9-(4-chloro-3-fluorophenyl)-N-(1-(tetrahydro-2H-pyran-4-yl)-1H-pyrazol-4-yl)-9H-purine-2-amine]
25 | < 1000 | COCCN1CCC(n2cc(Nc3ncc4ncn(-c5ccc(OC)cc5)c4n3)cn2)CC1 [Compound A13, N-(1-(1-(2-methoxyethyl)piperidin-4-yl)-1H-pyrazol-4-yl)-9-(4-methoxyphenyl)-9H-purin-2-amine]
26 | < 1000 | COc1ccc(-n2cnc3cnc(Nc4cnn(C5CCN(C)CC5)c4)nc32)cc1 [Compound A16, 9-(4-methoxyphenyl)-N-(1-(1-methylpiperidin-4-yl)-1H-pyrazol-4-yl)-9H-purin-2-amine]
27 | < 1000 | CCOc1ccc(-n2cnc3cnc(Nc4cnn(C5CCC(N)CC5)c4)nc32)cc1 (stereo not shown) [Compound A17, N-(1-(4-aminocyclohexyl)-1H-pyrazol-4-yl)-9-(4-ethoxyphenyl)-9H-purin-2-amine hydrochloride]
28 | 5000 to 10000 | COc1ccc(-n2cnc3cnc(Nc4cnn(-c5ccccc5)c4)nc32)cc1 [Compound A20, [9-(4-methoxy-phenyl)-9H-purin-2-yl]-(1-phenyl-1H-pyrazol-4-yl)-amine]
29 | < 1000 | Cn1cc(Nc2ncc3ncn(-c4ccc(-c5cnn(C)c5)cc4)c3n2)cn1 [Compound A21, (1-methyl-1H-pyrazol-4-yl)-{9-[4-(1-methyl-1H-pyrazol-4-yl)-phenyl]-9H-purin-2-yl}-amine]
30 | < 1000 | Cn1cc(Nc2ncc3ncn(-c4ccc(-c5cnn(C6CCNCC6)c5)cc4)c3n2)cn1 [Compound A23, (1-methyl-1H-pyrazol-4-yl)-{9-[4-(1-piperidin-4-yl-1H-pyrazol-4-yl)-phenyl]-9H-purin-2-yl}-amine]
31 | 1000 to 5000 | Cn1cc(Nc2ncc3nc(N)n(-c4ccc(-c5cnn(C)c5)cc4)c3n2)cn1 [Compound A24, N2-(1-methyl-1H-pyrazol-4-yl)-9-[4-(1-methyl-1H-pyrazol-4-yl)-phenyl]-9H-purine-2,8-diamine]
32 | 1000 to 5000 | Cn1cc(Nc2ncc3nc(N)n(-c4ccc(-c5cnn(C6CCNCC6)c5)cc4)c3n2)cn1 [Compound A26, N2-(1-methyl-1H-pyrazol-4-yl)-9-[4-(1-piperidin-4-yl-1H-pyrazol-4-yl)-phenyl]-9H-purine-2,8-diamine]
33 | < 1000 | CCOCCn1cc(-c2ccc(-n3cnc4cnc(N[C@@H]5CC[C@@H](C(N)=O)C5)nc43)cc2)cn1 [Compound A36, (1R,3R)-3-(9-{4-[1-(2-ethoxy-ethyl)-1H-pyrazol-4-yl]-phenyl}-9H-purin-2-ylamino)-cyclopentanecarboxylic acid amide]
34 | 5000 to 10000 | COCCn1cc(-c2ccc(-n3cnc4cnc(N[C@@H]5CCNC5)nc43)cc2)cn1 [Compound A38, (9-{4-[1-(2-methoxy-ethyl)-1H-pyrazol-4-yl]-phenyl}-9H-purin-2-yl)-(R)-pyrrolidin-3-yl-amine]
